Experimental data: patent publication US10857227B2, “Immunostimulatory compositions” (ASSISTANCE PUBLIQUE-HOPITAUX DE PARIS, priority 2015, dated 2020)
Where no end group is shown, it is not given here. [ ]: non-standard residue; d: D form. Dopa = N[C@@H](Cc1ccc(O)c(O)c1)C(=O)O

Key:
[1] = tested on: total splenocytes restimulated with MHC class-1 epitope KVPRNQDWL (human gp100); type: in vivo, C57-B16 mice; conditions: for CD8 immune response with various melanin precursors: 10 μg hgp100 epitope co-incubated with melanin precursor, pH 8.5 Tris, + 10 μg CpG-28, subcutaneous; for number of IFNy-secreting lymphocytes mean +/− SD: gp100 peptide 10 μg/mouse + L-Dopa 40 μg/mouse incubated 18 hours aerated, mixed with the TLR9 agonist
Method: (§1) […] After 2 immunizations, the CD8+immune response was evaluated on day 14 using a gamma interferon (IFNg)-secretion Elispot assay, after restimulation of total splenocytes with the relevant MHC class-1 epitope ([…] (SEQ ID NO: 2) for Ovalbumine or […] (SEQ ID NO: 3) for human gp100)

[2] = tested on: total splenocytes restimulated with MHC class-1 epitope SIINFEKL (Ovalbumine); assay: IFNg-secretion Elispot of splenocytes after immunization, restimulation with Ovalbumine epitope; type: in vivo, C57-B16 mice; conditions: for CD8 immune response (IFNg spots): Ovalbumine epitope alone or mixed with 10 μg DOPA, with or without 18 hours oxygen incubation, + CpG-28; for CD8 immune response (IFNg spots) / CD8 / CTL immune response: day 14; for CD8 / CTL immune response: 1 μg peptide + 10 μg CpG-28, day 0 & day 7; for immune response, Dopamine as melanin precursor: peptides with Dopamine; for immune response after 2 immunizations, Dopa as melanin precursor: 3.6 μg peptide co-incubated 18 hours with 100 μg DOPA pH 8.5
Method: as §1

[3] = Solubility and stability of oxidized Dopa or Dopamine solutions; type: physicochemical; conditions: for precipitation under centrifugation: 2 mg/ml oxidized solution, Dopa: oxygen at pH8.5, 16 000 g for 30 minutes; for aggregates under light microscopy: 2 mg/ml solution oxidized 20 hours, with or without pOVA 0.1 mg/ml
Method: Dopa (2 mg/ml) or Dopamine (2 mg/ml) solutions were incubated with or without the pOVA (0.1 mg/ml) at pH 7.4 or 8.5, and with different oxidizing agents (O2, ammonium persulfate) for 20 hours. All solutions darkened within a few hours. […] Under centrifugation, the dopamine solutions precipitated, and some dark material remained adherent to the tubes.

[4] = tested on: IFNγ-secreting lymphocytes; assay: Elispot after immunization with formulations oxidized by different agents (Example 2, Table 1); type: in vivo, mice; conditions: H2O2 or ammonium persulfate as oxidant
Method: C57-B16, 5-week old, mice were immunized twice (on day 1 and day 7) with the different formulations combined to a Toll-like Receptor 9 (TLR-9) agonist (10 μg of the CpG-28 oligonucleotide, […] (SEQ ID NO: 1)). After 2 immunizations, the CD8+immune response was evaluated on day 14 using a gamma interferon (IFNg)-secretion Elispot assay, after restimulation of total splenocytes with the relevant MHC class-1 epitope ([…] (SEQ ID NO: 2) for Ovalbumine or […] (SEQ ID NO: 3) for human gp100)
Other oxidizing agents such as hydrogen peroxide (H2O2) or ammonium persulfate (APS) can be used (FIG. 3).

[5] = 10 kD filtration and SDS-PAGE of melanin-EphA2 complex; type: physicochemical
Method: FIG. 11: SDS-PAGE (16% polyacrylamide gel) of various preparations: lane MW: molecular weight marker; lane “Ctrl EphA2”: control peptide EphA2 alone (SEQ ID NO: 9); lane “Filtrate”: filtrate of complex melanin-EphA2 after filtration on a 10 kD filter; lane “Retentate”: retentate of complex melanin-EphA2 after filtration on a 10 kD filter, resuspension, dissolution and heating in loading buffer containing SDS. (Melanin-EphA2 was obtained by co-incubating EphA2 peptide with L-Dopa (weight ration 1:10) in arerated conditions)
A solution of L-Dopa was mixed with an EPHA2 peptide ([…], SEQ ID NO: 9) at a weight ratio L-Dopa:epitope of 1:4. The mixture was then oxidized at pH 8.5 in aerated conditions.

[6] = Thin-layer chromatography of peptide and oxidized Dopa (complex formation); type: physicochemical; conditions: 72-hour incubation pH 8.5; hgp100 1 mg/ml, Dopa 10 mg/ml
Method: FIG. 8: Thin-layer chromatography (TLC) after a 72-hour incubation at pH 8.5 (Tris buffer). Left: hgp100 (SEQ ID NO: 3). only; middle: hgp100 (1 mg/ml) and Dopa (10 mg/ml), co-incubated with O2; right: hgp100 (1 mg/ml) added after Dopa (10 mg/ml) had been incubated with O2. […] (TLC was performed on aluminium foils, coated with a thin layer of silica gel as the stationary phase. After the samples have been loaded, a mixture of 1-Butanol/acetic acid/H2O (2/1/1) was used as the mobile phase. The TLC plates were then sprayed with ninhydrin reagent)
FIG. 9: Thin-layer chromatography (TLC) after a 72-hour incubation at pH 8.5 (Tris buffer). Left: hgp100 (, SEQ ID NO: 3) only; other lanes: hgp100 (1 mg/ml) incubated with various doses of Dopa (Dopa/hgp100 weight ratios: from 1/5 to 10/1). […] (TLC: similar conditions as FIG. 8).
In vitro experiments with Thin-layer chromatography (TLC) support the hypothesis that the incubation of the peptide while the catechol is being oxidized modifies the characteristic of the final formulation and that a complex is formed between the two entities (FIG. 8).

[7] = tested on: viral epitope gPr73 (SFAVATTAL); assay: CD8 immune response to viral epitope gPr73 variants co-incubated with L-Dopa; type: in vivo; conditions: Balb/c mice; peptide co-incubated with L-Dopa, mixed to CpG-28
Method: Adding arginines (R) or lysines (K) to the NH2-terminal end of the peptides enhanced the immune response when compared to unmodified Trp2 (animals were immunized once with formulations consisting of the peptide (10 μg/mouse) co-incubated with L-Dopa (100 μg/mouse), then mixed to CpG-28 (10 μg/mouse). The CD8 immune responses were assessed on day 8).
Similar data were obtained with a viral epitope in Balb/c mice (gPr73: SFAVATTAL, SEQ ID NO: 8). […] In both cases, if a glutamate (E) was added next to the lysine, the efficacy was reduced (Table 2).

[8] = tested on: anti-ovalbumine antibodies; assay: Humoral response: anti-ovalbumine antibody titers; type: in vivo, C57/Bml6 mice; conditions: day 14
Method: Ovalbumin protein (1 μg) was mixed to Dopa (1 μg) at pH 7.4, incubated for 4 hours with APS (0.3 μg), and injected subcutaneously with 10 μg in C57/Bml6 mice on day 0 and day 7.

[9] = 1 μg mixed to Dopa 1 μg pH 7.4, 4 hours APS 0.3 μg, subcutaneous day 0 and day 7

NC(Cc1cc(O)c(O)cc1O)C(=O)O (stereo not drawn) [6-hydroxydopa, 6-Hydroxy-DOPA]
CD8 immune response with various melanin precursors ([1]; 18 hours oxygen): significant CD8 immune response

CC(C)(C)OC(=O)N[C@@H](Cc1ccc(O)c(O)c1)C(=O)O [Boc-Dopa, N-(tert-Butyloxycarbonyl)-L-dopa]
CD8 immune response with various melanin precursors ([1]; 18 hours oxygen): reduced magnitude

N[C@H](Cc1ccc(O)c(O)c1)C(=O)O [D-Dopa, D-3,4-dihydroxyphenylalanine]
CD8 immune response with various melanin precursors ([1]; 18 hours oxygen): significant CD8 immune response

NCCc1ccc(O)c(O)c1 [Dopamine]
CTL immune response ([2]; long OVA peptide combined to Dopamine, incubated 4 hours with APS, + 10 μg CpG-28): triggered an immune response | CD8 immune response with various melanin precursors ([1]; 18 hours oxygen): reduced magnitude | precipitation under centrifugation [3]: precipitated | aggregates under light microscopy [3]: large aggregates were seen under light microscopy

N[C@@H](Cc1ccc(O)c(O)c1)C(=O)O [L-Dopa, L-3,4-dihydroxyphenylalanine]
CD8 immune response (IFNg spots) [2]: able to induce IFNg spots | CD8 immune response ([1]; 10 μg hgp100 epitope co-incubated with 100 μg DOPA pH 8.5, 18 hours oxygen, + CpG-28): significant CD8 immune response | CD8 immune response with various melanin precursors ([1]; 18 hours oxygen): significant CD8 immune response | optimal molar ratio of oxidant/Dopa for vaccine efficacy [4]: around 1/4 | precipitation under centrifugation [3]: did not precipitate | aggregates under light microscopy [3]: no aggregates can be seen | filterability of the oxidized solution ([3]; incubated with oxygen at pH8.5): can be filtered through a 0.2 μm filter, but not through a 100 kDalton-cut off filter | stability of the oxidized solution ([3]; incubated with oxygen at pH8.5): stable for several weeks

Oc1cccc2cccc(O)c12 [di-hydroxynaphtalene]
CD8 immune response with various melanin precursors ([1]; 18 hours oxygen): significant CD8 immune response

D-pOVA: Ovalbumine epitope synthesized with a DOPA at the beginning of the peptide ([Dopa]SIINFEKL)
CD8 / CTL immune response [2]: strong CTL immune responses

FSHHNIIRL (also: oxidized with L-Dopa to melanin) [EPHA2 peptide]
peptide from retentate heated in loading buffer containing SDS (SDS-page) ([5]; 16% polyacrylamide gel): got dissociated from melanin | peptide in the filtrate after 10 kD filtration ([5]; peptide oxidized with L-Dopa at pH 8.5 in aerated conditions): no peptide could detected in the filtrate

KVPRNQDWL (human gp100 epitope) [hgp100]
mean number of IFNγ-secreting lymphocytes +/−SD ([1]; C57BL/6 mice, gp100 10 μg/mouse, with or without L-Dopa 40 μg/mouse (18 hours aerated), combined to poly I:C 10 μg/mouse): 1+/−1 | minimal dose of the epitope required to induce CTLs ([1]; gp100-melanin formulation): 0.5 µg | IFNγ-secreting lymphocytes when combined with CpG ([1]; mixed with TLR9 agonist CpG-28, n=8 mice/group): not | CTL response, epitope added after L-Dopa had been oxidized instead of before ([1]; mouse, in vivo): a reduction in the CTL response was observed | free peptide on TLC, Dopa and peptide co-incubated with oxidizing agent [6]: not seen any more and not | free peptide on TLC, peptide added after Dopa had been oxidized [6]: Free peptide was seen

SFAVATTAL (Viral epitope of gPr73)
number of IFNy-secreting lymphocytes mean +/− SD [7]: 5 +/− 4

SIINFEKL [pOVA]
CD8 / CTL immune response [2]: did not trigger any significant CD8 immune response | CD8 immune response (IFNg spots) [2]: did not trigger any significant CD8 immune response | amount of epitope sufficient to detect an immune response ([2]; epitope with DOPA model, data not shown): ≤ 10 ng

SMLVLLPDEVSGLEQLESIINFEKLTEWTS (long OVA peptide) [SEQ ID NO:4]
immune response, Dopamine as melanin precursor [2]: highest immune response

SMLVLLPKKVSGLKQLESIINFEKLTKWTS (positive long OVA peptide) [SEQ ID NO: 6, long OVA peptide modified to be positively charged]
immune response after 2 immunizations, Dopa as melanin precursor ([2]; + 10 μg CpG-28): strong | immune response, Dopamine as melanin precursor [2]: lowest one

SMLVLLPKSVSGLSQLESIINFEKLTSWTS (neutral long OVA peptide) [SEQ ID NO: 5, long OVA peptide modified to be neutral]
immune response after 2 immunizations, Dopa as melanin precursor ([2]; + 10 μg CpG-28): intermediate | immune response, Dopamine as melanin precursor [2]: intermediate

TAAACGTTATAACGTTACGACGTCAT (listed as DNA, chemistry not given here) [CpG-28]
immune responses, adjuvant added before versus after oxidation ([1]; L-DOPA 100 μg + hgp100 epitope, 18 hours oxygen): similar | number of IFNy-secreting lymphocytes mean +/− SD [1]: 211 +/− 83

TCCATGACGTTCCTGACGTT [compound 1826]
number of IFNy-secreting lymphocytes mean +/− SD [1]: 134 +/− 54

TGACTGTGAACGTTCGAGATGA [ISS]
number of IFNy-secreting lymphocytes mean +/− SD [1]: 147 +/− 63

pOVA-D: Ovalbumine epitope synthesized with a DOPA at the end of the peptide (SIINFEKL[Dopa])
CD8 / CTL immune response [2]: strong CTL immune responses

B1: Ovalbumin protein: Ovalbumin protein mixed to Dopa at pH 7.4 and incubated with APS (composition melanin/antigen) (protein)
chain: GSIGAASMEFCFDVFKELKVHHANENIFYCPIAIMSALAMVYLGAKDSTRTQINKVVRFDKLPGFGDSIEAQCGTSVNVHSSLRDILNQITKPNDVYSFSLASRLYAEERYPILPEYLQCVKELYRGGLEPINFQTAADQARELINSWVESQTNGIIRNVLQPSSVDSQTAMVLVNAIVFKGLWEKAFKDEDTQAMPFRVTEQESKPVQMMYQIGLFRVASMASEKMKILELPFASGTMSMLVLLPDEVSGLEQLESIINFEKLTEWTSSNVMEERKIKVYLPRMKMEEKYNLTSVLMAMGITDVFSSSANLSGISSAESLKISQAVHAAHAEINEAGREVVGSAEAGVDAASVSEEFRADHPFLFCIKHIATNAVLFFGRCVSP
titer of anti-ovalbumine antibodies IgG1 [8, 9]: 1/8000 | titer of anti-ovalbumine antibodies IgG2b [8, 9]: 1/5250 | type of immune response (IgG subtypes) [8]: mixed Th1 and Th2 immune response
